Test results from patent US6887878B2, “KMST isoeugenol derivatives and pharmaceutical activity” (Ing-Jun Chen, priority 2003, dated 2005).
Where two headings read alike, the source gives them in different places.

Tests used:
5-HT1A = molecular target: T1, 5-HT1A (Rattus norvegicus, UniProt P19327); test: [3H]WAY100635 receptor binding
T1 sequence (P19327 1-422): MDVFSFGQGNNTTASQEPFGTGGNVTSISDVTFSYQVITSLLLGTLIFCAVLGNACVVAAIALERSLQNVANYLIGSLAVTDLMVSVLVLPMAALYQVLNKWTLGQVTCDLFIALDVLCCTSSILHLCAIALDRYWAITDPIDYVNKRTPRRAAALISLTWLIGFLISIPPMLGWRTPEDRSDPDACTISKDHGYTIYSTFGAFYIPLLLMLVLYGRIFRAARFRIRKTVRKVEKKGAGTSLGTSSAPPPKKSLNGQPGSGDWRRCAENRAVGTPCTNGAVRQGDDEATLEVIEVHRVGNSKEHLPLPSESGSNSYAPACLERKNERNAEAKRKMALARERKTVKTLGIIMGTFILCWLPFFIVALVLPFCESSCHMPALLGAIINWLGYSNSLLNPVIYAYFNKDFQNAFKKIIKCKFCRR

α2 receptors = test: [3H]yohimbine receptor binding in rat cortex; design: species or system Wistar rat
Description: (§1) The homogenate was pressure filtered through muslin. Filtrate was centrifuged at 1000 g for 10 min. […] Protein content was determined by Bradford's method.

[1] = tested on: serotonin-induced human platelet aggregation; test: serotonin-induced human platelet aggregation; format: cell-based; conditions: Homo sapiens, Platelet; read-out: IC50 serotonin-induced platelet aggregation
Description: Venous blood from human volunteer donors was collected in 10 ml Monovette containing 1 ml citrate solution (0.106M trisodium citrate; Sarstedt, Nümbrecht, Germany) and centrifuged (400 g, 10 min, 20° C.). […] After centrifugation (10 min, 2000 g, 20° C.), the platelet pellet was resuspended in wishing buffer (113 mM NaCl, 4 mM Na2HPO4, 24 mM NaH2PO4, 4 mM KCl, 0.2 mM EGTA(Ethylene glycol-bis-(2-aminoethyl ether) N,N,N′-tetraacetic acid), 0.1% (wt/vol) glucose, pH 6.0) and recentrifuged (10 min, 2000 g, 20° C.). The washed platelets were resuspended in incubation buffer (134 mM NaCl, 12 mM NaHCO3, 2.9 mM KCl, 0.34 mM NaH2PO4, 5 mM HEPES (N-(2-hydroxyethyl) piperazine-N′-(2-ethanesulfonic acid)), 5 mM glucose, pH7.4), cells were counted in a Sysmex hematology analyzer (Sysmex, CDA-500, Japan) and adjusted to a final concentration of 2×10^8 platelets/ml.
The aggregation of the platelets in platelet-rich plasma (PRP) was measured as a change in light absorbance by a Payton dual-channel aggregometer (NBS, Hema tracer, Japan). PRP (240 μL) was stirred (700 rpm) at 37° C. for 1 min, and 5 μL epinephrine (final concentration 5 μM), serotonin (final concentration 5 μM) was added. After which the rate of primary aggregation (1/min) and maximum aggregation (%) at 5 min were recorded. To study the effects of compounds on epinephrine or serotonin-induced aggregation, PRP was incubated with 5 μL of compounds at various concentrations for 1 min before epinephrine or serotonin was added. IC50 values given were calculated from the secondary aggregation data.

α1 receptors = test: [3H]prazosin receptor binding in rat cortex; design: species or system Wistar rat
Description: as §1

5-HT1B = molecular target: T2, 5-HT1B (Rattus norvegicus, UniProt P28564); test: [3H]GR125743 receptor binding in rat cortex; design: species or system Wistar rat; conditions: [3H]GR125743 (5-HT1B/1D), rat cortex; read-out: Ki 5-HT1B
T2 construct: from tissue; host or cells: Wistar rat cortex membranes
Description: as §1

α1-adrenergic receptor = test: noradrenaline-induced contraction in isolated rat thoracic aorta (pA2); design: species or system Wistar rat; conditions: Schild plot, mean ± SEM of eight
Description: Clonidine, noradrenaline and serotonin (10^−8˜10^−4 M) were added to the bath to induce contractions after pretreatment with KMST for 15 min.

β1 receptors = molecular target: T3, β1 receptors (Rattus norvegicus, UniProt P18090); test: [3H]CGP-12177 receptor binding in rat ventricle; design: species or system Wistar rat; conditions: [3H]CGP-12177, rat ventricle
T3 construct: from tissue; host or cells: Wistar rat heart (ventricle) membranes
Description: as §1

anesthetized rats [2] = test: LPS-induced hypotension; format: in vivo, Wistar rat; conditions: pretreatment, intravenous LPS
Description: (§2) In brief, Wistar rats weighing 250-300 g were anesthetized with pentobarbital sodium (50 mg kg^−1, i.p.). Following tracheal cannulation, systemic arterial BP and HR were recorded from the femoral artery by a pressure transducer (model P10EZ; Spectramed, Oxnard, Calif., U.S.A.) connected to a recorder (GOULD, Valley View, Ohio, Model P50). Body temperature was maintained at 37° C. by an electric heating pad. A femoral vein was cannulated for intravenous injection of drugs and LPS (10 mg kg^−1).

[3] = tested on: phenylephrine-induced contractions in rat thoracic aorta; test: LPS-induced vascular hyporeactivity: phenylephrine-induced contractions in rat thoracic aorta; format: in vivo, Wistar rat; conditions: pD2 to phenylephrine
anesthetized rats [4] = test: intra-cisternal injection and NTS microinjection, BP and HR; format: in vivo, rat; conditions: for BP and HR after intra-cisternal injection and NTS microinjection: central administration
Description: Intra-cisternal injections of KMST (0.3, 0.03 μmol), yohimbine [0.03 μmol), and clonidine (38 pmol), were performed in rats as described by Duan et al (1987). Briefly, rats weighing 250-300 g were anaesthetized with pentobarbital sodium (50 mg kg^−1, i.p.) and mounted in a David-Kopf stereotaxic instrument (Yeh J L. et al., Brain. Res. Bull., 30:641-648, 1993). The calvarium was exposed and a 1 mm diameter trephine hole was drilled 1.8 mm lateral to the coronary and 1.5 mm posterior to the sagittal sutures. A cannula (0.7 mm O.D.) connected to a Hamilton syringe (RN-705, 5051) by PE-50 was advanced 4.7 mm into the brain using the electrode carrier.
Rats were anesthetized and placed in a David-Kopf stereotaxic instrument. The cerebellum was exposed after removing the skin and occipital bone. The NTS coordinates were (reference to lambda) P 5-6 mm, L/R 0.5-1 mm, depth 6-7.5 mm (Wu et al., 1994). NTS injection sites were confirmed by decreasing BP and HR following micro-injection of 1% L-glutamate. […] Pre-treatment with clonidine was performed 15 min before administration of test agents. At the end of experiments, the animals were sacrificed. The brain was removed and sectioned for histological confirmation of the drug application site.

[5] = tested on: IL-1β, IL-6, IFN-γ and TNF-α; test: LPS-induced plasma cytokine immunoreactivity; format: in vivo, rat; conditions: for LPS-induced elevations of IL-1β, IL-6, IFN-γ and TNF-α levels: 1 mg kg−1, i.v., pretreatment
Description: as §2
Blood was collected from venous cannula, injected into ice-cold heparinized Eppendorf tubes and centrifuged at 1500 rpm for 10 min at 4° C. Plasma supernatant was stored at −70° C. until analyzed. Solid phase enzyme immunoassay that specifically detects murine IL-1β, IL-6, IFN-γ and TNF-α was used with a detection limit of >10 pg/ml (Endogen, U.S.A). Pre-treatment with KMST and other agents was performed 15 minutes before intravenous injection of LPS. Blood was collected from venous cannula. Blood glucose was measured with a glucose test strip (Glucotide, Bayer, U.S.A) at 1, 3 and 5 hours.

[6] = tested on: epinephrine-induced human platelet aggregation; conditions: Mustonen et al., 2000; read-out: estimated IC50 to inhibit epinephrine-induced platelet aggregation; cited from earlier work
[7] = tested on: lipid peroxidation in rat brain homogenate; test: lipid peroxidation initiated by Fe2+-ascorbic acid in rat brain homogenates (TBARS); format: biochemical; conditions: rat brain homogenates; read-out: IC50 inhibiting lipid peroxidation initiated by Fe2+-ascorbic acid
Description: Rat brain homogenate was made in 0.9% saline containing 10 mg tissue/ml. The rates of membrane lipid peroxidation were measured by the formation of thiobarbituric acid (TBA)-reactive substance (TBARS). Rat brain homogenates (1 ml) were incubated at 37° C. for 5 min with 10 μl of test compound or vehicle. […] After 30 min of incubation, the reaction was stopped by adding 0.1 ml of 0.2% BHT. TBA reagent was then added and the mixture was heated for 30 min in a boiling water bath. […] The amount of TBARS was quantified using the linear regression obtained from malondialdehyde (MDA) standards.

β2 receptors = molecular target: T4, β2 receptors (Rattus norvegicus, UniProt P10608); test: [3H]CGP-12177 receptor binding in rat lung; design: species or system Wistar rat; conditions: [3H]CGP-12177, rat lung
T4 construct: from tissue; host or cells: Wistar rat lung membranes
Description: as §1

5-HT2A receptor = 5-HT2A receptor (Rattus norvegicus, UniProt P14842); test: [3H]ketanserin receptor binding in rat cortex; design: from tissue; host or cells: Wistar rat cortex membranes; species or system Wistar rat
Description: as §1

[8] = agent given after LPS injection (1 hr)
[9] = agent given before LPS injection (30 min)

T3 sequence (P18090 whole entry): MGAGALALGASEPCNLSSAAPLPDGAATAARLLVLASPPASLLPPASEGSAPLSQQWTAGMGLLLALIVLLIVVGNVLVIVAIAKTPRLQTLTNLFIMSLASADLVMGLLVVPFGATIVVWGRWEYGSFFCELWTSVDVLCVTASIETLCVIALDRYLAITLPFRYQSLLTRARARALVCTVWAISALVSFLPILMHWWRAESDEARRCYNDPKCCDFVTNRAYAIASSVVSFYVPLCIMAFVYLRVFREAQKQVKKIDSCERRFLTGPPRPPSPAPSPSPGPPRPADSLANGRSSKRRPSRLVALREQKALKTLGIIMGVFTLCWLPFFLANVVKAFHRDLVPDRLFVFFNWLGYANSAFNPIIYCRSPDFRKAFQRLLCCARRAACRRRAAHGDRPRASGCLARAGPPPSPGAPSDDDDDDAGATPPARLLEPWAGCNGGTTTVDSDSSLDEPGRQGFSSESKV
T4 sequence (P10608 whole entry): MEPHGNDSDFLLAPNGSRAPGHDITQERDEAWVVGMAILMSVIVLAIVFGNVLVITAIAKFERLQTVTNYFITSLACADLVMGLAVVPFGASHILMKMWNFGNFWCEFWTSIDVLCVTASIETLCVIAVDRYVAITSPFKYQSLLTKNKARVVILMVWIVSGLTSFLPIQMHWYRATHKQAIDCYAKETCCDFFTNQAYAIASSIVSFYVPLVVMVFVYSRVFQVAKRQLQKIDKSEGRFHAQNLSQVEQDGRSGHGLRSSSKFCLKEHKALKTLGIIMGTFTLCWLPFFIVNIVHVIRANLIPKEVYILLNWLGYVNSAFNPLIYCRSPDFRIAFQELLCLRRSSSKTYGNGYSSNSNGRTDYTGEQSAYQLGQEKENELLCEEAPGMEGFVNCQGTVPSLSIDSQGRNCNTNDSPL
T2 sequence (P28564 whole entry): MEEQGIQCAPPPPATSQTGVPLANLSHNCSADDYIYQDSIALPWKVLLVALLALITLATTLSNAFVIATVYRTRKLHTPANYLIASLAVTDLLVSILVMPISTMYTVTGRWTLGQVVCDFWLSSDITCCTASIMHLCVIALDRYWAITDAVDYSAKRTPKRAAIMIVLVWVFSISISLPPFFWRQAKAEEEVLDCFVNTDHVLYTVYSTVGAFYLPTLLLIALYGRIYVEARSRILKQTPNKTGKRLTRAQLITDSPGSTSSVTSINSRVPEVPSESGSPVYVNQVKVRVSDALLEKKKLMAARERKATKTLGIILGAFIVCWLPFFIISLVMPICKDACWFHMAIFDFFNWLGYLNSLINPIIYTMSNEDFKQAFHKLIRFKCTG
5-HT2A receptor, sequence (P14842 whole entry): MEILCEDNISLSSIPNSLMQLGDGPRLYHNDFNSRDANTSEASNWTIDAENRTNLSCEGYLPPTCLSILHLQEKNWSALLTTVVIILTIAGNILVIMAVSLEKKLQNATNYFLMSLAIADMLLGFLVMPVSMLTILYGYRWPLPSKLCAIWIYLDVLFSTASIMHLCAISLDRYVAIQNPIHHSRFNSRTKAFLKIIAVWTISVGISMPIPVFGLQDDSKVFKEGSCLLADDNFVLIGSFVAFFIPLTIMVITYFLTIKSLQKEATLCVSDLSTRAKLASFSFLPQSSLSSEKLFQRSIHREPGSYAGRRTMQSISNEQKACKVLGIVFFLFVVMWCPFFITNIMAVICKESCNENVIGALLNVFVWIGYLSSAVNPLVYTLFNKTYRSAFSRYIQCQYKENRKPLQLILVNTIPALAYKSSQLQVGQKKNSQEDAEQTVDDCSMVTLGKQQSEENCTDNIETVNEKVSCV

O=C(c1ccc(F)cc1)C1CCN(CCn2c(=O)[nH]c3ccccc3c2=O)CC1 [Ketanserin, reference compound]
Ki (5-HT1A): > 10 µM | Ki (α2 receptors): 2.27 µM | IC50 [1]: 0.01 µM | Ki (α1 receptors): 0.0158 µM | Ki (5-HT1B): > 10 µM | α1 pA2 value (α1-adrenergic receptor): 7.74 ± 0.32

CC(CCc1ccccc1)NCC(O)c1ccc(O)c(C(N)=O)c1 (centres unmarked) [Labetalol, reference compound]
Ki (β1 receptors): 0.00417 µM | Ki (α1 receptors): 0.0525 µM

O=c1n(CCCN2CCN(c3cccc(Cl)c3)CC2)nc2ccccn12 [Trazodone]
aortic hyporeactivity and second prolonged hypotensive reaction induced by LPS (anesthetized rats [2]): inhibited | pD2 at 3rd hr [3, 8]: 6.01 ± 0.09 | pD2 at 5th hr [3, 8]: 5.04 ± 0.11 | pD2 at 3rd hr [3, 9]: 6.29 ± 0.21 | pD2 at 5th hr [3, 9]: 3.99 ± 0.16 | BP and HR after intra-cisternal injection and NTS microinjection (anesthetized rats [4]): increased BP and HR | LPS-induced elevations of IL-1β, IL-6, IFN-γ and TNF-α levels [5]: reduced only IL-1β and TNF-α

COC(=O)[C@@H]1[C@H]2C[C@H]3c4[nH]c5ccccc5c4CCN3C[C@@H]2CC[C@@H]1O [Yohimbine]
aortic hyporeactivity and second prolonged hypotensive reaction induced by LPS (anesthetized rats [2]): inhibited | pD2 at 3rd hr [3, 8]: 6.12 ± 0.14 | pD2 at 5th hr [3, 8]: 5.13 ± 0.26 | pD2 at 3rd hr [3, 9]: 6.73 ± 0.33 | pD2 at 5th hr [3, 9]: 3.44 ± 0.22 | BP and HR after intra-cisternal injection and NTS microinjection (anesthetized rats [4]): increased BP and HR | clonidine-induced bradycardia (anesthetized rats [4]; low dose (0.03 μmol)): did not inhibit | clonidine-induced hypotension (anesthetized rats [4]; low dose (0.03 μmol)): reduced | IC50 [6]: 0.98 µM | IC50 [7]: 11.1 ± 0.35 µM | LPS-induced elevations of IL-1β, IL-6, IFN-γ and TNF-α levels [5]: reduced only IL-1β and TNF-α | LPS-induced production of IFN-γ ([5]; 1 hour after LPS administration): insignificantly enhanced

Isoeugenodilol [reference compound]
Ki (α2 receptors): 9.7 µM | Ki (β2 receptors): 0.0537 µM | Ki (β1 receptors): 0.0436 µM | Ki (α1 receptors): 0.0389 µM | Ki (5-HT2A receptor): 1.01 µM

Isoeugenolol [reference compound]
Ki (α2 receptors): > 10 µM | Ki (β2 receptors): 6.86 µM | Ki (β1 receptors): 0.209 µM | Ki (α1 receptors): > 10 µM | Ki (5-HT2A receptor): 0.585 µM

Methsergide [reference compound]
Ki (5-HT1A; read-out: Ki 5-HT1A, [3H]WAY100635): > 10 µM | Ki (α2 receptors): 2.43 µM | Ki (α1 receptors): > 10 µM | Ki (5-HT1B): > 10 µM
